According to patent US12268694B2, “Combination pharmaceutical agents as RSV inhibitors” (Enanta Pharmaceuticals, Inc., priority 2017, dated 2025):

system: genotype A, "Long" strain RSV; experiment: RSV-A assay: CPE protection in HEp-2 cells, ATPlite readout; format: cell-based, human respiratory syncytial virus; conditions: HEp-2 cells, RSV-A Long strain, ATPlite readout; read-out: Human RSV-A (“Long” strain) EC50
Excerpt: HEp-2 cells, (originally derived from tumors grown in irradiated-cortisonised weanling rats that had been injected with epidermoid carcinoma tissue from a person's larynx, but later found to be indistinguishable from HeLa cells by PCR DNA analysis), were used for the culturing of genotype A, “Long” strain RSV. Flasks were inoculated with RSV and viral stocks were collected once cytopathic effect (CPE) was greater than 90%. Viral stocks in 25% sucrose media were snap frozen using liquid nitrogen to increase viral stability. Viral stock titers were quantified by tissue culture infectious dose 50% (TCID50) using 8,000 cells per well and 3-fold viral dilutions across a 96-well plate, cultured for 4 days. Viral stock titers were also quantified by a plaque forming unit assay, as described elsewhere.
Following extensive parameter testing, the final assay is run as follows: HEp-2 cells are seeded into the inner 60 wells of a 96-well plate at 8,000 cells per well in a volume of 50 μL using Growth Media (DMEM without phenol red, 1% L-Glut, 1% Penn/Strep, 1% nonessential amino acids, 10% heat-inactivated FBS). 2-fold serial dilutions of control and test compounds are added to the wells in duplicate in a total volume of 25 μL. Viral stock is then added to the wells at a multiplicity of infection (MOI) of 0.1 in a volume of 25 μL, bringing the total volume of each well to 100 μL. The MOI is calculated using the PFU/mL, or TCID50 if unavailable. Each 96-well plate has a control column of 6 wells with cells and virus but no compound (negative control, max CPE), a column with cells but no compound or virus (positive control, minimum CPE), and a column with no cells or virus or compound (background plate/reagent control). The control wells with cells but no virus are given an additional 25 μL of growth media containing an equal quantity of sucrose as those wells receiving the viral stock in order to keep consistent in media and volume conditions. The outer wells of the plate are filled with 125 μL of moat media (DMEM, 1% Penn/Strep) to act as a thermal and evaporative moat around the test wells. Following a 5-day incubation period, the plates are read using ATPlite (50 μL added per well), which quantifies the amount of ATP (a measure of cell health) present in each well. Assay plates are read using the Envision luminometer. In parallel, cytotoxicity is examined on an additional 96-well plate treated in an identical manner, but substituting the 25 μL of viral stock for 25 μL of growth media. […] EC50 ranges are as follows: A <0.4 μM; B 0.4-0.8 μM; C >0.8 μM and CC50 ranges are as follows: A >50 μM; B 10-50 μM; C <10 μM.

Compound	EC50 [µM]
O=C1Nc2c(F)cccc2C(c2ccccc2)=N[C@@H]1Nc1nnc(-c2cccnc2N2CCOCC2)o1 (single isomer, unassigned) [Example 357]	> 0.8
O=C1Nc2c(F)cccc2C(c2ccccc2)=N[C@@H]1Nc1nnc(-c2ncc(C(F)(F)F)cc2N2CCOCC2)o1 (single isomer, unassigned) [Example 359]	< 0.4
O=C1Nc2ccccc2C(c2ccccc2)=NC1Nc1nnc(-c2ncc(F)cc2N2CCOCC2)o1 (stereo not shown) [Example 137]	> 0.8
O=C1Nc2ccccc2C(c2ccccc2)=NC1Nc1nnc(-c2ncc(F)cc2N2CCOCC2)o1 (stereo not shown) [Example 138]	< 0.4
O=C1Nc2ccccc2C(c2ccccc2)=NC1Nc1nnc(-c2ccc(F)nc2N2CCOCC2)o1 (stereo not shown) [Example 149]	0.4 to 0.8
O=C1Nc2ccccc2C(c2ccccc2)=NC1Nc1nnc(-c2ccc(F)nc2N2CCOCC2)o1 (stereo not shown) [Example 150]	< 0.4

same assay, conditions: human respiratory syncytial virus, HEp-2, read-out: Human RSV-A (“Long” strain) EC50

Compound	EC50 [µM]
O=C1Nc2ccccc2C(c2ccccc2)=N[C@@H]1Nc1nnc(-c2ncc(C(F)(F)F)cc2N2CCOC3CC32)o1 (mixture of isomers) [Example 466]	< 0.4
O=C1Nc2ccccc2C(c2ccccc2)=N[C@@H]1Nc1nnc(-c2ncc(C(F)(F)F)cc2N2CCOC(C(F)(F)F)C2)o1 (mixture of isomers) [Example 467]	< 0.4
CCOC1(c2nc(-c3nnc(N[C@H]4N=C(c5ccccc5)c5ccccc5NC4=O)o3)c(N3CCOCC3)s2)CCC1 (stereo in doubt) [Example 458]	< 0.4
N#Cc1ccc(-c2nnc(NC3N=C(c4ccccc4)c4ccccc4NC3=O)o2)nc1 (stereo not shown) [Example 24]	0.4 to 0.8
COc1cc(-c2nnc(NC3N=C(c4ccccc4)c4ccccc4NC3=O)o2)ccn1 (stereo not shown) [Example 56]	> 0.8
CCOC(=O)c1nnc(NC2N=C(c3ccccc3)c3ccccc3NC2=O)o1 (stereo not shown) [Example 78]	> 0.8
O=C1Nc2ccccc2C(c2ccccc2)=NC1Nc1ncc(-c2ccccc2)s1 (stereo not shown) [Example 85]	> 0.8
O=C1Nc2ccccc2C(c2ccccc2)=NC1Nc1noc(-c2ccccc2)n1 (stereo not shown) [Example 91]	> 0.8
COc1ccc(CN2C(=O)C(C)(N)N=C(c3ccccc3)c3ccccc32)cc1 (stereo not shown) [Example 102]	> 0.8
CS(=O)(=O)c1ccc(-c2nnc(NC3N=C(c4ccccc4)c4ccccc4NC3=O)o2)nc1 (stereo not shown) [Example 107]	> 0.8
COc1ccc(-c2nnc(NC3N=C(c4ccccc4)c4ccccc4NC3=O)o2)nc1Cl (stereo not shown) [Example 109]	> 0.8
Cc1nc(-c2nnc(NC3N=C(c4ccccc4)c4ccccc4NC3=O)o2)ccc1F (stereo not shown) [Example 110]	> 0.8
O=C1Nc2ccccc2C(c2ccccc2)=NC1Nc1nnc(-c2cccc(N3CCOCC3)c2)o1 (stereo not shown) [Example 111]	> 0.8
O=C1Nc2ccccc2C(c2ccccc2)=NC1Nc1nnc(-c2ccc(N3CCOCC3)c(F)c2)o1 (stereo not shown) [Example 112]	> 0.8
Cc1cc(-c2nnc(NC3N=C(c4ccccc4)c4ccccc4NC3=O)o2)ccc1N1CCOCC1 (stereo not shown) [Example 113]	0.4 to 0.8
O=C1Nc2ccccc2C(c2ccccc2)=NC1Nc1nnc(-c2ccc(N3CCOCC3)cn2)o1 (stereo not shown) [Example 114]	> 0.8
O=C1Nc2ccccc2C(c2ccccc2)=NC1Nc1nnc(-c2ccc(N3CCOCC3)nc2)o1 (stereo not shown) [Example 115]	< 0.4
O=C1Nc2ccccc2C(c2ccccc2)=NC1Nc1nnc(-c2ccc(NC3CCCCC3)cc2)o1 (stereo not shown) [Example 116]	> 0.8
COCCNc1ccc(-c2nnc(NC3N=C(c4ccccc4)c4ccccc4NC3=O)o2)cc1 (stereo not shown) [Example 117]	> 0.8
COCCN(C)c1ccc(-c2nnc(NC3N=C(c4ccccc4)c4ccccc4NC3=O)o2)cc1 (stereo not shown) [Example 118]	> 0.8
O=C1Nc2ccccc2C(c2ccccc2)=NC1Nc1nnc(-c2cc(F)ccc2N2CCOCC2)o1 (stereo not shown) [Example 119]	0.4 to 0.8
CS(=O)(=O)c1ccc(-c2nnc(NC3N=C(c4ccccc4)c4ccccc4NC3=O)o2)c(N2CCOCC2)c1 (stereo not shown) [Example 121]	> 0.8
O=C1Nc2ccccc2C(c2ccccc2)=NC1Nc1nnc(-c2ccc(N3CCOCC3)cc2Cl)o1 (stereo not shown) [Example 122]	> 0.8
O=C1Nc2ccccc2C(c2ccccc2)=N[C@@H]1Nc1nnc(-c2ccc(N3CCOCC3)cc2)o1 [Example 124a]	< 0.4
O=C1Nc2ccccc2C(c2ccccc2)=N[C@H]1Nc1nnc(-c2ccc(N3CCOCC3)cc2)o1 [Example 124b]	> 0.8
O=C1Nc2ccccc2C(c2ccccc2)=N[C@@H]1Nc1nnc(-c2ccccc2N2CCOCC2)o1 [Example 125a]	< 0.4

Compound	EC50 [µM]
O=C1Nc2ccccc2C(c2ccccc2)=N[C@H]1Nc1nnc(-c2ccccc2N2CCOCC2)o1 [Example 125b]	> 0.8
O=C1Nc2ccccc2C(c2ccccc2)=N[C@@H]1Nc1nnc(-c2ccc(N3CCOCC3)cc2F)o1 [Example 126a]	< 0.4
O=C1Nc2ccccc2C(c2ccccc2)=N[C@H]1Nc1nnc(-c2ccc(N3CCOCC3)cc2F)o1 [Example 126b]	> 0.8
O=C1Nc2ccccc2C(c2ccccc2)=NC1Nc1nnc(-c2ccc(-n3cncn3)cc2N2CCOCC2)o1 (stereo not shown) [Example 128]	0.4 to 0.8
O=C1Nc2ccccc2C(c2ccccc2)=NC1Nc1nnc(-c2ccc(C(F)(F)F)nc2N2CCOCC2)o1 (stereo not shown) [Example 130]	0.4 to 0.8
O=C1Nc2ccccc2C(c2ccccc2)=NC1Nc1nnc(-c2ncccc2N2CCOCC2)o1 (stereo not shown) [Example 132]	< 0.4
O=C1Nc2ccccc2C(c2ccccc2)=NC1Nc1nnc(-c2cnccc2N2CCOCC2)o1 (stereo not shown) [Example 133]	0.4 to 0.8
O=C1Nc2ccccc2C(c2ccccc2)=NC1Nc1nnc(-c2cnccc2N2CCCCC2)o1 (stereo not shown) [Example 134]	> 0.8
O=C1Nc2ccccc2C(c2ccccc2)=NC1Nc1nnc(-c2ncc(N3CCOCC3)cc2Cl)o1 (stereo not shown) [Example 135]	> 0.8
N#Cc1cnc(-c2nnc(NC3N=C(c4ccccc4)c4ccccc4NC3=O)o2)c(N2CCOCC2)c1 (stereo not shown) [Example 140]	< 0.4
O=C1Nc2ccccc2C(c2ccccc2)=NC1Nc1nnc(-c2ccncc2N2CCCCC2)o1 (stereo not shown) [Example 141]	> 0.8
O=C1Nc2ccccc2C(c2ccccc2)=NC1Nc1nnc(-c2ccncc2N2CCOCC2)o1 (stereo not shown) [Example 142]	0.4 to 0.8
O=C1Nc2ccccc2C(c2ccccc2)=NC1Nc1nnc(-c2nccnc2N2CCOCC2)o1 (stereo not shown) [Example 143]	< 0.4
O=C1Nc2ccccc2C(c2ccccc2)=NC1Nc1nnc(-c2cc(F)cnc2N2CCOCC2)o1 (stereo not shown) [Example 145]	0.4 to 0.8
O=C1Nc2ccccc2C(c2ccccc2)=NC1Nc1nnc(-c2cc(C(F)(F)F)cnc2N2CCOCC2)o1 (stereo not shown) [Example 146]	> 0.8
O=C1Nc2ccccc2C(c2ccccc2)=NC1Nc1nnc(-c2ccc(N3CCOCC3)cc2C(F)(F)F)o1 (stereo not shown) [Example 147]	> 0.8
O=C1Nc2ccccc2C(c2ccccc2)=NC1Nc1nnc(-c2cccc(F)c2N2CCOCC2)o1 (stereo not shown) [Example 148]	> 0.8
O=C1Nc2ccccc2C(c2ccccc2)=N[C@@H]1Nc1nnc(-c2ccc(F)nc2N2CCOCC2)o1 [Example 151, (S)-3-((5-(6-fluoro-2-morpholinopyridin-3-yl)-1,3,4-oxadiazol-2-yl)amino)-5-phenyl-1,3-dihydro-2H-benzo[e][1,4]diazepin-2-one]	< 0.4
O=C1Nc2ccccc2C(c2ccccc2)=N[C@@H]1Nc1nnc(-c2ccc(C(F)(F)F)cc2N2CCOCC2)o1 [Example 152]	< 0.4
O=C1Nc2ccccc2C(c2ccccc2)=N[C@@H]1Nc1nnc(-c2ccc(C3CC3)nc2N2CCOCC2)o1 [Example 154]	< 0.4
O=C1Nc2ccccc2C(c2ccccc2)=N[C@@H]1Nc1nnc(-c2ccc(=O)[nH]c2N2CCOCC2)o1 [Example 156, (S)-3-((5-(2-morpholino-6-oxo-1,6-dihydropyridin-3-yl)-1,3,4-oxadiazol-2-yl)amino)-5-phenyl-1,3-dihydro-2H-benzo[e][1,4]diazepin-2-one]	> 0.8
N#Cc1ccc(-c2nnc(N[C@H]3N=C(c4ccccc4)c4ccccc4NC3=O)o2)c(N2CCOCC2)c1 [Example 157]	< 0.4
O=C1Nc2ccccc2C(c2ccccc2)=N[C@@H]1Nc1nnc(-c2ccc(F)cc2N2CCOCC2)o1 [Example 159]	< 0.4
O=C1Nc2ccccc2C(c2ccccc2)=N[C@@H]1Nc1nnc(-c2cnc(N3CCOCC3)cn2)o1 [Example 161]	> 0.8
O=C1Nc2ccccc2C(c2ccccc2)=N[C@@H]1Nc1nnc(-c2cnc(C(F)(F)F)nc2N2CCOCC2)o1 [Example 162]	< 0.4
O=C1Nc2ccccc2C(c2ccccc2)=N[C@@H]1Nc1nnc(-c2nc3ccccn3c2N2CCOCC2)o1 [Example 163]	> 0.8
